This is an account of results in ChEMBL document CHEMBL3507680, “University of Dundee, Gates Library screen for HepG2 cell viability”.

The series is described as follows: Human HepG2 cell viability assay in 384 well format. The settings on record: HepG2 cells, read-out: Inhibition. The series is classed as toxicity, cell-based. Also on record: dose 125 nL, time 70.5 hour; cytotoxicity at 70.5 h: concentration not given beside the values.

For `O=C(CN1CCCS(=O)(=O)CC1)NCc1ccccc1F`, the cytotoxicity at 70.5 h was -8.4%. In the case of `O=C(CC1CCCO1)NCc1ccc(Br)cc1F` (stereo not drawn) it was -5.9%; in that of `CCOCCCC(=O)NC1CCN(C(C)c2ccccc2)CC1` (stereo not drawn), -5.8%; in that of `N#CCCN(Cc1cccnc1)C(=O)Cc1ccc(-n2cnnn2)cc1`, -10.6%. In the case of `COc1ccc(-n2ccc(CNCc3cccc(OC)c3)n2)cc1` it was 23.7%; in that of `Cc1cccc(OCCNC(=O)C(C)S(=O)(=O)C2CCCC2)c1` (stereo not drawn), -9.37%.

As to `CCC(NC(=O)NCc1ccoc1C)c1c(C)nn(C)c1C` (stereo not drawn), the cytotoxicity at 70.5 h is -5.65%. In the case of `Cc1nn(C)c(C)c1CC(C)NC(=O)NCc1ccn(C(C)C)n1` (stereo not drawn) it was -5.76%; in that of `CC(C)CNC(=O)c1ccc(NC(=O)NC(C)(C)CO)cc1Cl`, -2.58%; in that of `CCC1(c2ccc(NS(=O)(=O)c3cccs3)cc2)CCC(=O)NC1=O` (stereo not drawn), -1.8%.

For the compound `CC(C)CN1C(=O)C2(CCCC2)NC1c1cccnc1` (stereo not drawn), the cytotoxicity at 70.5 h is 17.9%.

Consider `CC(CO)CNC(=O)c1cc2cccc(F)c2o1` (stereo not drawn), for which the cytotoxicity at 70.5 h was -9.63%. Consider `CCN(CC)S(=O)(=O)CCNC(=O)c1cc2cccc(F)c2o1`, for which the cytotoxicity at 70.5 h was -1.2%. For `CCc1nsc(N2CCCN(C(=O)c3ccsc3)CC2)n1`, the cytotoxicity at 70.5 h amounted to 14%. `CCc1nsc(N2CCCN(C(=O)c3ccc(CC)o3)CC2)n1`: the cytotoxicity at 70.5 h was -11%.

`CCc1nsc(N2CCCN(C(=O)c3ccc(OC)cc3)CC2)n1`: the cytotoxicity at 70.5 h is -10.9%.

Turning to `CCOC(=O)C(CO)NC(=O)CCc1cccc(OC2CCCC2)c1` (stereo not drawn), the cytotoxicity at 70.5 h was -3.2%.

Turning to `Cc1nc(NC(=O)CCOCC(F)(F)F)ccc1Br`, the cytotoxicity at 70.5 h turned out to be 2.27%. In the case of `CC(NC(=O)c1cccnc1N(C)C)c1ccccc1Cl` (stereo not drawn) it was -9.9%; in that of `CCC(NCc1ccccc1C)c1ccccc1OCC(=O)NC` (stereo not drawn), 25.2%; in that of `O=C1OCCN1c1cccc(CNS(=O)(=O)Cc2ccc(F)cc2)c1`, -6.39%.

Consider `CC(C)N(C)C(=O)c1ccc(CNc2ncc(C#N)cc2Cl)cc1`, for which the cytotoxicity at 70.5 h turned out to be 18.7%. In the case of `Cc1cc(C)c(CCNC(=O)NCCCC(N)=O)c(C)c1` it was -1.98%; in that of `CC(NC(=O)CCc1cccc(OC2CCCC2)c1)c1nncn1C` (stereo not drawn), 2.36%.

On to `COCC1CCN(CCCc2cn[nH]c2)CC1`, for which the cytotoxicity at 70.5 h amounted to 19.8%. In the case of `CC1CCN(S(=O)(=O)c2cccnc2)c2ccccc2S1` (stereo not drawn) it was -3.73%; in that of `CCNC(=O)C1CCCN(Cn2nc(C(C)(C)C)ccc2=O)C1` (stereo not drawn), 21.4%.

For `CC(C)(C)c1ccc(=O)n(CN2CCCC(C(F)(F)F)C2)n1` (stereo not drawn), the cytotoxicity at 70.5 h was -7.29%. With `CCC(CNS(C)(=O)=O)Oc1ccccc1F` (stereo not drawn), the cytotoxicity at 70.5 h was -6.95%.

Turning to `Cn1cc(CNCCC(=O)NCc2ccccc2)c(-c2cccnc2)n1`, the cytotoxicity at 70.5 h amounted to 2.26%. To `Cn1cc(CNCC2(O)CCCCC2)c(-c2cccnc2)n1` belongs -4.88%; to `CCC(NCc1ccccn1)c1ccccc1OCC(=O)NC` (stereo not drawn), -3.93%. In the case of `CC(C)N(Cc1ccc(Cl)c(Cl)c1)C(=O)Cn1cncn1` it was 1.18%. To `Cc1cccn2cc(CNCc3cccc4c3OCCCO4)nc12` belongs 8.14%; to `O=c1n(CCSCCOc2ccc(Br)cc2)nc2ccccn12`, -10.7%. `Cc1cc(C(=O)CN2CCN(c3cnccn3)CC2)c(C)n1C(C)C`: the cytotoxicity at 70.5 h was -10.7%.

Turning to `O=C(c1cccnc1O)N(CCO)Cc1cc(Br)ccc1F`, the cytotoxicity at 70.5 h is -9.73%. To `NC(=O)C1CCN(C(=O)c2ccc(Sc3ccccn3)cc2)CC1` belongs -2.31%; to `CC(=O)NCC1CCN(C(=O)c2ccc(Sc3ccccn3)cc2)CC1`, -16.7%. `CC(=O)N1CCN(C(=O)c2ccc(Sc3ccccn3)cc2)CC1`: the cytotoxicity at 70.5 h is -14%.

Regarding `Cc1cccc(OCCSCCn2nc3ccccn3c2=O)c1`, the cytotoxicity at 70.5 h is -11%. To `Cc1cc(OC(F)F)c(C(=O)N2CCN(C3CC3)CC2)s1` belongs -8.34%. Regarding `COCCC(Cc1cccc(Br)c1)C(=O)N(C)C` (stereo not drawn), the cytotoxicity at 70.5 h is -0.534%. In the case of `COCCC(Cc1cccc(Br)c1)C(=O)NCC(N)=O` (stereo not drawn) it was -9.6%; in that of `Cc1nn(C)c(C)c1Cc1nc(N(C)C)no1`, -0.362%. To `COC(=O)CN(C(=O)c1cc(C(C)C)no1)c1cccc(F)c1` belongs -8.3%; to `Cc1noc2ncc(S(=O)(=O)N3CCCC(C)(C)CC3)cc12`, -2.62%. In the case of `COc1cc(NC(=O)N2CCCC2c2nncn2C)ccc1Br` (stereo not drawn), the cytotoxicity at 70.5 h is -4.18%. In the case of `CC(C)CC(CO)NC(=O)NCc1csc(N(C)C)n1` (stereo not drawn) it was 0.865%. In the case of `CCOCc1ccc(NC(=O)N2CCCC2c2nncn2C)cc1` (stereo not drawn) it was -6.88%.

For `COc1ccc(Cn2nnnc2SCC2CCCN(C)C2)cc1` (stereo not drawn), the cytotoxicity at 70.5 h was -8.49%. To `Cc1cc(OC(F)F)c(C(=O)N2CCC(CN(C)C)CC2)s1` belongs -5.68%; to `COCCC(Cc1cccc(Br)c1)C(=O)O` (stereo not drawn), -5.16%; to `COCc1noc(Cc2c(C)nn(C)c2C)n1`, -2.81%.

Turning to `O=C(NCCC(=O)N1CCCC1)c1ccc(SCc2cccnc2)cc1`, the cytotoxicity at 70.5 h is -8.9%. `N#CCc1ccc(OCC(=O)NS(=O)(=O)c2cccs2)cc1`: the cytotoxicity at 70.5 h stood at 1.77%. In the case of `CC1CN(c2ccc(CNC(=O)NCc3ccoc3)cn2)CCO1` (stereo not drawn) it was -5.8%; in that of `CC1CN(c2ccc(CNC(=O)NCCn3ccnc3)cn2)CCO1` (stereo not drawn), -16.7%; in that of `O=C(NCCn1ccnc1)NCc1ccc(N2CCCCCC2)nc1`, -14.2%. Take `CCc1sc(C(=O)Nc2cnn(CC(N)=O)c2)cc1C`: the cytotoxicity at 70.5 h is 14.8%.

`CN(C)C(=O)c1ccc(CNc2c(Cl)cccc2C#N)cc1`: the cytotoxicity at 70.5 h turned out to be 3.41%. In the case of `Cn1cc(C(C)(O)CNc2ccc(C(F)(F)F)cn2)cn1` (stereo not drawn) it was -1.94%; in that of `O=C(CN1CCCC(c2ccn[nH]2)C1)Nc1nncs1` (stereo not drawn), 1.3%; in that of `CN(C(=O)C(c1c(F)cccc1Cl)N(C)C)c1nccs1` (stereo not drawn), 3.15%. To `Cc1cc(CNc2ccnn2C)ccc1-n1cncn1` belongs -1.29%; to `CCc1cc(NCc2ccc(-n3cncn3)c(C)c2)n(C)n1`, 2.61%; to `CC(=O)Nc1sccc1C(=O)C(C)(C)C`, 16.1%. To `CNC(=O)COc1ccc(CNc2c(Cl)cccc2C#N)cc1` belongs -2.72%; to `COc1ccnc(NC(=O)CSCc2cccnc2)c1`, -1.54%; to `Cc1ncsc1C(=O)N(C)Cc1ccc(Br)o1`, 20.1%. With `O=C(NCCc1ccccc1)N1CCCCC1C1OCCO1` (stereo not drawn), the cytotoxicity at 70.5 h is -1.28%.

In the case of `COCCCNC(=O)C(C)(C)N(C)C1CCCC1`, the cytotoxicity at 70.5 h is -0.184%. With `O=C(CN1CCCC(c2ccn[nH]2)C1)Nc1nc2c(s1)CCC2` (stereo not drawn), the cytotoxicity at 70.5 h is -2.76%. On to `Cc1ccc2cc(C(=O)N3CCCN(C)CC3)ccc2n1`, for which the cytotoxicity at 70.5 h is -2.19%. To `CC(CS(C)(=O)=O)NCc1cc(Cl)ccc1F` (stereo not drawn) belongs 19.9%; to `CC(C)N(CC(N)=O)CC(=O)N(C1=CCCCC1)C1CC1`, 3.33%. To `CC1CCCN1C1CCN(C(=O)c2cccc(F)c2)CC1` (stereo not drawn) belongs 6.94%.

With `COc1ccc(Cc2nnc3n2N=C(C(C)(C)C)CS3)cc1`, the cytotoxicity at 70.5 h was 8.14%. For the compound `c1ccc2[nH]c(C3CCN(Cc4nnc(C5CC5)o4)CC3)cc2c1`, the cytotoxicity at 70.5 h was -12.6%. On to `CCCN(C)c1ccc(C(=O)NCc2ccnc(C)n2)cc1`, for which the cytotoxicity at 70.5 h is -10%. To `Cc1ccc(NC(=O)CN2CCCNC2=O)c(SC(F)(F)F)c1` belongs -7.48%. Take `CCOc1ccc(C#N)cc1NC(=O)N1CCC(N2CCCC2)C1` (stereo not drawn): the cytotoxicity at 70.5 h was -9.59%. In the case of `CCCC1CCCN(C(=O)Nc2ccnc(C(=O)N(C)C)c2)CC1` (stereo not drawn) it was -6.22%; in that of `Cc1ccc(C2CSCCN2CC(=O)N2CCOCC2)cc1` (stereo not drawn), -5.8%. In the case of `Cc1nc2ncnn2c(C)c1CCC(=O)Nc1cccn(C)c1=O` it was -15.3%. In the case of `Cc1nn(C)c(C)c1CCC(=O)Nc1cccn(C)c1=O` it was -3.26%; in that of `Cc1noc(C)c1CNS(=O)(=O)N(C)Cc1ccc(Cl)cc1`, -5.95%.

Take `CNC(=O)C(C)CN(C)C(=O)Nc1cc(-n2cccc2)ccc1F` (stereo not drawn): the cytotoxicity at 70.5 h is -3.24%. In the case of `CN(CC(O)C1CC1)C(=O)Nc1ccc(F)c(-n2cccc2)c1` (stereo not drawn), the cytotoxicity at 70.5 h is -2.43%. In the case of `Cc1cc(CCC(=O)N2CC[C@H](O)C2)ccc1Br`, the cytotoxicity at 70.5 h was 1.1%. To `CC(C#N)CN(C)C(=O)c1cn(-c2ccc(Br)cc2)cn1` (stereo not drawn) belongs -1.57%; to `CNC(=O)C(C)CN(C)C(=O)Nc1ccc(F)c(-n2cccc2)c1` (stereo not drawn), 0.178%. In the case of `Cc1noc(C)c1CNS(=O)(=O)N(C)Cc1ccccc1Br` it was -9.08%. To `Cc1ncsc1CN(C)C(=O)CC1CCOc2ccccc21` (stereo not drawn) belongs 22.4%; to `CC(NCc1cccc(S(=O)(=O)N(C)C)c1)c1cccnc1` (stereo not drawn), -3.39%; to `O=C(CN1CCN(C(=O)c2cccc(-c3ccoc3)c2)CC1)C1CC1`, -5.66%. For `CN(Cc1ccccn1)C(=O)CC1CCOc2ccccc21` (stereo not drawn), the cytotoxicity at 70.5 h was -8.29%.

On to `CN(CC(=O)N1CCCC1)Cc1nc2c(cnn2C)c(=O)[nH]1`, for which the cytotoxicity at 70.5 h is -10.6%.

As for `CCN(CC)C(=O)CN(C)Cc1nc2c(cnn2C)c(=O)[nH]1`, the cytotoxicity at 70.5 h was -10.6%. To `CC(C)C(=O)Nc1ncn(Cc2cccc(Br)c2)n1` belongs -9.36%. To `CCc1nnc2n1CCN(C(=O)c1ccc3c(c1)NC(=O)CO3)C2` belongs -1.73%; to `Cn1cnc2c1CCN(CCCOc1ccc(S(C)(=O)=O)cc1)C2`, -11.2%; to `N#Cc1ccc(CNCC2(c3ccccc3)CCOCC2)cc1`, -12%.
